According to US20230374015A1, “INHIBITORS OF FIBROBLAST GROWTH FACTOR RECEPTOR KINASES” (Kinnate Biopharma Inc., priority 2020, published 2023):

Target: FGFR2 (Homo sapiens, UniProt P21802)
Assay: FGFR2 Kinase Protocol - Condition 2 (Reaction Biology HotSpot radiometric kinase assay, no preincubation)
Assay type: biochemical
Details: poly[Glu:Tyr] (4:1) 0.2 mg/ml, ATP 100 microM, 2 hr room temperature
In short: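 Radiometric HotSpot format: FGFR2 (wildtype or V564F) with poly[Glu:Tyr] (4:1) at 0.2 mg/ml in HEPES pH 7.5 buffer with 1% DMSO; ATP plus [γ33P]ATP at 100 µM total, added without preincubation. Reactions ran 2 hr at room temperature, then filter-bound. IC50 from 10-dose, 3-fold series versus DMSO control.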

Chain of FGFR2 (P21802 22-821): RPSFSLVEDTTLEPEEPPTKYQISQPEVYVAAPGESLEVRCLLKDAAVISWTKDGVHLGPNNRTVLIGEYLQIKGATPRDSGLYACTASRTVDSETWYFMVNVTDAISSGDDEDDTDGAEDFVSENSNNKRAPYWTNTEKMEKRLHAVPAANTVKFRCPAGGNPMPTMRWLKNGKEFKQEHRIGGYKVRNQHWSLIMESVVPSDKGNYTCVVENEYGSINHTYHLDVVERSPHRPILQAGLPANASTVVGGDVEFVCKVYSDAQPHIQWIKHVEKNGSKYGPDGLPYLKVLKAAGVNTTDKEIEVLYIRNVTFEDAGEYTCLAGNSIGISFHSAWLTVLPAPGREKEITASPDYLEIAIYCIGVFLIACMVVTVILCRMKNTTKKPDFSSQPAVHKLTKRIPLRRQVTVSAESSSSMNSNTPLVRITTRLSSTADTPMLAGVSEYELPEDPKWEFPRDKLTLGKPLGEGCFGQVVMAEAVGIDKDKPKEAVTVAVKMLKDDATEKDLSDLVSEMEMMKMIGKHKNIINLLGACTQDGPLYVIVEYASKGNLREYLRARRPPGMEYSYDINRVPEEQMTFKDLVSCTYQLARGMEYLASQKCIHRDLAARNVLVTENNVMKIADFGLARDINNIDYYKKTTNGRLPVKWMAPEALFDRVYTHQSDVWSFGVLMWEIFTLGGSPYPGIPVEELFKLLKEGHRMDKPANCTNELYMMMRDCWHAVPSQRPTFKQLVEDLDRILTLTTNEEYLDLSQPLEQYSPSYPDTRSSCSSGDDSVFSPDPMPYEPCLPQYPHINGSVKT

Compound | IC50 [nM]
C=CC(=O)N1CC[C@H](n2cc(C#Cc3cc4ncn(C)c4cc3F)c3c(N)ncnc32)C1 [Example 142, (S)-1-(3-(4-Amino-5-((6-fluoro-1-methyl-1H-benzo[d]imidazol-5-yl)ethynyl)-7H-pyrrolo[2,3-d]pyrimidin-7-yl)pyrrolidin-1-yl)prop-2-en-1-one] | ≤ 100
C=CC(=O)N1C[C@@H](n2nc(C#Cc3cc4ncn(C)c4cc3F)c3c(N)ncnc32)C[C@@H]1CF [Example 184, 1-[(2R,4S)-4-{4-Amino-3-[2-(6-fluoro-1-methyl-1,3-benzodiazol-5-yl)ethynyl]pyrazolo[3,4-d]pyrimidin-1-yl}-2-(fluoromethyl)pyrrolidin-1-yl]prop-2-en-1-one] | ≤ 100
C=CC(=O)N1C[C@@H](n2cc(C#Cc3c(F)cc4c(ncn4C4CC4)c3F)c3c(N)ncnc32)C[C@@H]1COC [Example 75, 1-[(2R,4S)-4-[4-Amino-5-[2-(1-cyclopropyl-4,6-difluoro-1,3-benzodiazol-5-yl)ethynyl]pyrrolo[2,3-d]pyrimidin-7-yl]-2-(methoxymethyl)pyrrolidin-1-yl]prop-2-en-1-one] | ≤ 100
C=CC(=O)N1C[C@@H](n2nc(C#Cc3cc4ncn(C)c4c(F)c3F)c3c(N)ncnc32)C[C@@H]1COC [Example 120, 1-((2R,4S)-4-(4-Amino-3-((6,7-difluoro-1-methyl-1H-benzo[d]imidazol-5-yl)ethynyl)-1H-pyrazolo[3,4-d]pyrimidin-1-yl)-2-(methoxymethyl)pyrrolidin-1-yl)prop-2-en-1-one] | ≤ 100
C=CC(=O)N1C[C@@H](n2nc(C#Cc3cc4nc(C)n(C)c4cc3Cl)c3c(N)ncnc32)C[C@@H]1COC [Example 96, 1-[(2R,4S)-4-[4-Amino-3-[2-(6-chloro-1,2-dimethyl-1,3-benzodiazol-5-yl)ethynyl]pyrazolo[3,4-d]pyrimidin-1-yl]-2-(methoxymethyl)pyrrolidin-1-yl]prop-2-en-1-one] | ≤ 100

Next, values leading:

IC50 [nM] | Compound
≤ 100 | C=CC(=O)N1C[C@@H](n2nc(C#Cc3cc4ncn(CC)c4c(F)c3F)c3c(N)nccc32)C[C@@H]1CC#N [Example 160, 2-[(2R,4S)-4-{4-Amino-3-[2-(1-ethyl-6,7-difluoro-1,3-benzodiazol-5-yl)ethynyl]pyrazolo[4,3-c]pyridin-1-yl}-1-(prop-2-enoyl)pyrrolidin-2-yl]acetonitrile]
≤ 100 | C=CC(=O)N1C[C@@H](n2nc(C#Cc3cc4ncn(CC)c4c(F)c3Cl)c3c(N)ncnc32)C[C@@H]1CC#N [Example 173, 2-[(2R,4S)-4-{4-Amino-3-[2-(6-chloro-1-ethyl-7-fluoro-1,3-benzodiazol-5-yl)ethynyl]pyrazolo[3,4-d]pyrimidin-1-yl}-1-(prop-2-enoyl)pyrrolidin-2-yl]acetonitrile]
≤ 100 | C=CC(=O)N1CC[C@H](n2nc(C#Cc3cc4ncn(C)c4c(F)c3F)c3c(N)ncnc32)C1 [Example 154, 1-[(3S)-3-{4-Amino-3-[2-(6,7-difluoro-1-methyl-1,3-benzodiazol-5-yl)ethynyl]pyrazolo[3,4-d]pyrimidin-1-yl}pyrrolidin-1-yl]prop-2-en-1-one]
≤ 100 | C=CC(=O)N1C[C@@H](n2nc(C#Cc3c(F)cc4c(ncn4C4CC4)c3F)c3c(N)ncnc32)C[C@@H]1COC [Example 72, 1-[(2R,4S)-4-[4-Amino-3-[2-(1-cyclopropyl-4,6-difluoro-1,3-benzodiazol-5-yl)ethynyl]pyrazolo[3,4-d]pyrimidin-1-yl]-2-(methoxymethyl)pyrrolidin-1-yl]prop-2-en-1-one]
≤ 100 | C=CC(=O)N1C[C@@H](n2nc(C#Cc3cc4ncn(CC)c4cc3Cl)c3c(N)ncnc32)C[C@@H]1C [Example 168, 1-((2S,4S)-4-(4-amino-3-((1-ethyl-6-chloro-1H-benzo[d]imidazol-5-yl)ethynyl)-1H-pyrazolo[3,4-d]pyrimidin-1-yl)-2-methylpyrrolidin-1-yl)prop-2-en-1-one]
